Reference: patent US10138282B2, “Peptide antagonist of LL-37” (INDIANA UNIVERSITY RESEARCH AND TECHNOLOGY CORPORATION, priority 2014, dated 2018)
“Also recorded” adds a separate entry of the source. Where no end group is shown, it is not given here.

What was measured:
[1] = test system: Escherichia coli ATCC 25922; assay: MIC assay, broth microdilution (CLSI); type: cell-based; conditions: E. coli ATCC 25922; peptide: None
Procedure: MIC assays were performed according to protocols for broth microdilution according to the Clinical Laboratory Standards Institute (CLSI, 2015. Methods for Dilution Antimicrobial susceptibility tests for bacterial that grow aerobically; Approved standard—tenth edition).

TLR4 signaling = assay: IL-6 production (ELISA) in BEAS-2B cells induced with LPS; type: cell-based, human; conditions: for IL-6 production (%) LPS-depend.: BEAS-2B cells induced with 1.0 μg/ml of LPS, LL-37 100
Procedure: (§1) IL-6 production was quantified by ELISA using the OptEIA™ kit (BD Biosciences). A typical assay used 2×10^4 BEAS-2B cells/well grown for 24 h in flat bottom 96-well plates. Poly(I:C) was added to a final concentration of 0.13 μg/ml. Antimicrobial peptides were added to the cell culture medium to a final concentration of 3 μM unless specified otherwise. All ELISA results shown were performed in triplicate and in at least three independent experiments.
(§2) To better define how residues in LL-37 contribute to function, several variants derived from LL-37 were tested for: 1) repression of TLR4 signaling by LPS, 2) enhancement of TLR3 signaling by poly(I:C), and 3) binding to LL-37. Signaling by TLR3 and TLR4 were monitored using ELISA to detect IL-6 secreted into the medium of BEAS-2B cells.

TLR3 signaling = assay: IL-6 production (ELISA) in BEAS-2B cells induced with poly(I:C); type: cell-based, human; conditions: for Enhancement of TLR3 signaling / poly(I:C)-induced IL-6, in words: BEAS-2B cells; for IL-6 production (%) poly(I:C)-depend.: BEAS-2B cells induced with 130 ng/ml of poly(I:C), LL-37 100
Procedure: as §1, §2

[2] = Dynamic light scatter spectroscopy, hydrodynamic radius; type: physicochemical; conditions: for Hydrodynamic radius (nm) pH 5.8 / Hydrodynamic radius (nm) pH 7.4: 1.0 μM peptide; for Hydrodynamic radius (nm) pH 5.8: phosphate buffer pH 5.8; for Hydrodynamic radius (nm) pH 7.4: phosphate buffer pH 7.4; for pH-dependent dissociation of peptide particles, in words: acidification of phosphate buffer
Procedure: The hydrodynamic radii of LL-37 and other peptides were monitored by a Zetasizer Nano-S instrument (Malvern Instruments). All measurements were taken with 1 μM of peptide dissolved in phosphate buffer adjusted to the desired pH at 22° C.

poly(I:C) = assay: Fluorescence polarization, peptide binding to poly(I:C)
Procedure: (§3) Peptide binding to poly(I:C) was analyzed by monitoring fluorescence polarization using the Synergy H1 microplate reader (BioTek). Fluorescein-labeled LL-37 was titrated to a 100 μL solution containing poly(I:C) and phosphate buffers at different pHs. Interactions between LL-37 and other peptides were analyzed using LL-37 labeled at the N-terminus with fluorescein (0.1 μM), and peptides were titrated from 1 nM to 1000 nM in phosphate buffer at pH 7.0. Interaction between poly(I:C) and different peptides was determined by titrating fluorescein-labeled poly(I:C) (0.1 μM) with peptides added to final concentrations of 10 to 500 nM in phosphate buffer at pH 7.4. All polarization assays were performed in triplicate.
LL-37 accompanies dsRNA to endosomes containing TLR3. However, it is unknown whether LL-37 will release the dsRNA in endosomes. Johansson et al. (1998) have previously determined that a neutral pH is required for the activity of LL-37. We seek to determine whether LL-37 binding to dsRNA can be affected by pH.

Reovirus dsRNA, Reo S4 = assay: IL-6 production in BEAS-2B cells in the presence of Reovirus dsRNA Reo S4; type: cell-based, human
Procedure: as §1
Herein, we analyzed the LL-37 orthologs from Rhesus monkeys, pig, sheep, guinea pigs, rabbit, as well as mouse (FIG. 14A). All peptides were chemically synthesized and assayed for the induction of inflammatory cytokine IL-6 in the presence of the double-stranded RNA mimic, poly(I:C) or the Reovirus dsRNA, Reo S4 (FIGS. 14B and 14C). […] Importantly, all LL-37 orthologs tested had the ability to reduce IL-6 production in response to LPS (FIG. 14E).

f-LL37 = biological target: T1, f-LL37 (Homo sapiens, UniProt P49913); assay: Fluorescence polarization, interaction of peptides with fluorescein-labeled LL-37; type: binding
T1 sequence (P49913 134-170 limits assumed): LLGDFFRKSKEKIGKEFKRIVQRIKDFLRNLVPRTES
Procedure: as §3

[3] = test system: LL-37 enhancement of TLR3 signaling; assay: Antagonism of LL-37/poly(I:C)-enhanced IL-6 production in BEAS-2B cells; type: cell-based, human; conditions: peptide added with LL-37/poly(I:C), BEAS-2B cells
Procedure: as §1
We examined whether LL-29 could affect the enhancement of TLR3 signaling by WT LL-37/poly(I:C). An increasing amount of LL-29 along with a constant amount of LL-37/poly(I:C) was used to assess IL-6 production in BEAS-2B cells. […] That is, LL-29 abrogated LL-37's ability to enhance TLR3 signaling. That is, LL-29 is an example of a peptide antagonist of LL-37 function.

FPRL-1 receptor = biological target: T2, FPRL-1 receptor (Homo sapiens, UniProt P25090); assay: IL-6 production in BEAS-2B cells knocked down with siRNA (FPRL-1, EGFR, control); type: cell-based; conditions: for IL-6 production, peptide added along with LL-37 and poly(I:C), in words: siRNA to FPRL-1 or nonspecific control; for IL-6 production, peptide with poly(I:C), in words: knockdown of either FPRL-1 or EGFR
T2 construct: a human lung epithelial cell line that expresses endogenous FPRL-1; endogenous in cells; host or cells: BEAS-2B
T2 sequence (P25090 1-351): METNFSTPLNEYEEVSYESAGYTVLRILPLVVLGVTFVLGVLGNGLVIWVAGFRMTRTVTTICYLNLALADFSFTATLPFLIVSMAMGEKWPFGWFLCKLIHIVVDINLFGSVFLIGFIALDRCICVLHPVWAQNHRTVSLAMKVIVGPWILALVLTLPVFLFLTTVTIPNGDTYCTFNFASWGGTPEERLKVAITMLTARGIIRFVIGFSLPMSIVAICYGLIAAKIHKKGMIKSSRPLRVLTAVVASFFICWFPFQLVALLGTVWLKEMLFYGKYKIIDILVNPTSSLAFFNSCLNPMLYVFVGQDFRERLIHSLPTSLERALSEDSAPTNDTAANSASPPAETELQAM
Procedure: BEAS-2B cells were seeded at 2×10^6 cells per 6-well plate for 6 h prior to transfection with 30 nM of a pool of three siRNAs from Santa Cruz Biotechnology. Transfections were done using Lipofectamine 2000.
Cells were grown on poly-L-lysine (Life Technologies). The level of target mRNA was analyzed using qRT-PCR and normalized to the levels of GAPDH mRNA. The sequences of the primers will be made available upon request. Poly(I:C) was added 48 h after siRNA transfection and IL-6 levels in the culture media were collected 24 h later.
LL-37's enhancement of TLR3 signaling required trafficking of LL-37/poly(:C) to endosomes via the FPRL-1 receptor. Therefore, we examined whether LL-29 used the FPRL-1 receptor to enter cells. siRNA was used to knock down the expression of either FPRL-1, EGFR, or TLR3. […] Co-localization of fLL-37 and rpIC was reduced to less than a third of the control. […] Knockdowns performed with siRNAs to either a nonspecific control or EGFR had no effect on the enhancement of IL-6 production.
Will LL-29 affect the use of the FPRL-1 receptor by the LL-37/poly(I:C) complex? BEAS-2B cells knocked down for FPRL-1 were treated with LL-37 along with additional concentrations of LL-37, Pentamide, LL-29, Peptide A, or LL8-37 (FIG. 6C). Signaling by TLR3 was determined by the amount of IL-6 secreted in the cell culture media. A control siRNA had no effect on WT LL-37/poly(I:C) enhancement of IL-6 production.
LL-37 uses the Formyl peptide receptor-like 1 (FPRL-1) receptor to deliver nucleic acids into endosomes, where activation of the Toll-like receptors that recognize nucleic acids takes place (Singh et al., 2014). We sought to determine whether the LL-37 orthologs from other mammals could also use the FPRL-1 in the human BEAS-2B cells to deliver dsRNA. BEAS-2B cells were treated with poly(I:C) along with the peptides and the peptides from pig, sheep, rabbit, and mouse had reduced ability to use the FPRL-1 to activate IL-6 production.

Row | Molecule | MIC (μg/ml) of antibiotic, no peptide [1] | IL-6 production (%) LPS-depend. (TLR4 signaling) | Enhancement of TLR3 signaling / poly(I:C)-induced IL-6, in words (TLR3 signaling) | IL-6 production (%) poly(I:C)-depend. (TLR3 signaling) | Hydrodynamic radius (nm) pH 5.8 [2] | Hydrodynamic radius (nm) pH 7.4 [2] | Binding to poly(I:C)/dsRNA in fluorescent polarization assay, in words (poly(I:C)) | pH-dependent dissociation of peptide particles, in words [2] | Interaction with fLL-37, in words (f-LL37) | IL-6 production, peptide added along with LL-37 and poly(I:C), in words (FPRL-1 receptor) | also measured
1 | COc1cccc2c1C(=O)c1c(O)c3c(c(O)c1C2=O)C[C@@](O)(C(=O)CO)C[C@@H]3O[C@H]1C[C@H](N)[C@H](O)[C@H](C)O1 [Doxorubicin, reference compound] | 0.5 µg/mL | – | – | – | – | – | – | – | – | – | –
2 | NC[C@H]1O[C@H](O[C@H]2[C@H](O)[C@@H](O[C@H]3O[C@H](CO)[C@@H](O)[C@H](N)[C@H]3O)[C@H](N)C[C@@H]2N)[C@H](O)[C@@H](O)[C@@H]1O [Kanamycin, reference compound] | 4 µg/mL | – | – | – | – | – | – | – | – | – | –
3 | COc1cc(Cc2cnc(N)nc2N)cc(OC)c1OC [Trimethoprim, reference compound] | 0.25 µg/mL | – | – | – | – | – | – | – | – | – | –
4 | GLLRKGGEKIGEKLKKIGQKIKNFFQKLVPQPEQ [mCRAMP, murine ortholog of LL-37, reference compound] | – | 82 ± 29% | failed to enhance TLR3 signaling; also recorded: unable to enhance IL-6 production | 31 ± 3% | 1106 nm | 1718 nm | failed to bind dsRNA | – | – | – | Enhancement of IL-6 production / signaling by Reo S4, in words (Reovirus dsRNA, Reo S4): unable to enhance IL-6 production
5 | LLGDFFRKSKEKIGKEFKRIVQRIKDFLRKLVPQPEQ (listed as Homo sapiens) [Peptide A] | – | 161 ± 11% | – | 41 ± 6% | 956 nm | 1990 nm | debilitated for binding RNA | reduced for the ability to dissociate under acidic pH conditions | retained partial interaction with fLL-37; also recorded: retain partial activity to interact with fLL-37 | resulted in a reduction in IL-6 levels | Antagonism of LL-37 enhancement of TLR3 signaling (IL-6), in words [3]: to a lesser degree than LL-29; also recorded: can partially antagonize the enhancement of TLR3 signaling
6 | LLGNFFRKSKQKIGKQFKRIVQRIKNFLRNLVPRTQS (not fully specified) [Pentamide, five acidic residues in LL-37 replaced with neutral-polar residues, reference compound] | – | 400 ± 32% | failed to enhance TLR3 signaling | 31 ± 0% | 1990 nm | 1106 nm | failed to bind dsRNA | failed to dissociate | – | had no effect on IL-6 production unless FPRL-1 expression was reduced | Suppression of TLR4 signaling / LPS-induced IL-6, in words (TLR4 signaling; BEAS-2B cells): failed to suppress TLR4 signaling; IL-6 production, peptide with poly(I:C), in words (FPRL-1 receptor): did not enhance IL-6 production
7 | RL-37: LL-37 ortholog from Rhesus monkey, SEQ ID NO: 20 (RLGNFFRKVKEKIGGGLKKVGQKIKDFLGNLVPRTAS; (1)..(37) Monkey RL-37; listed as Macaca mulatta) [reference compound] | – | – | more similar to that of the human LL-37 | – | – | – | – | – | – | – | –
8 | SKEKIGKEFKRIVQRIKDFLR [LL9-29] | – | 196 ± 11% | failed to enhance TLR3 signaling | 31 ± 3% | 1281 nm | 446.5 nm | – | failed to dissociate | did not | – | Binding f-LL37: fold change in the fluorescence anisotropy values of f-LL-37 (f-LL37; between 1.0 nM and 1000 nM of added peptide): 2.6 ± 0.2 fold
9 | SKEKIGKEFKRIVQRIKDFLRNLVPRTES ((1)..(29) LL8-37; listed as Homo sapiens) | – | 239 ± 21% | – | 38 ± 3% | 615 nm | 825 nm | – | – | retain partial activity to interact with fLL-37 | had no effect on IL-6 production unless FPRL-1 expression was reduced | IL-6 production, peptide with poly(I:C), in words (FPRL-1 receptor): did not enhance IL-6 production
